According to ChEMBL document CHEMBL1201862, “PubChem BioAssay data set” (2004):
Where a name gives a salt, the structure may show the parent alone.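 Five compound concentrations were applied to cells in 96-well plates for 48 hours; endpoints were derived by simple linear interpolation of the resulting dose-response curve. GI50: concentration for 50% inhibition of growth.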 Calls of active or inactive are those of the source. Cut-off read from the data, not from the text of the source: active = GI50 up to about 1.1 µM and inactive = higher.

What was measured:
Assay in all cases: NCI anticancer screen, dose series, 48 h
HOP-18 = test system: HOP-18
XF498 = test system: XF498
M19-MEL = test system: M19-MEL
KM-20L2 = test system: KM-20L2
DMS-273 = test system: DMS-273
SNB-78 = test system: SNB-78
T47D = test system: T47D
RXF 631 = test system: RXF 631
DMS-114 = test system: DMS-114

Compound: COC1OC2COC(c3ccccc3)OC2C(O)C1Br (stereo unspecified)
- GI50 (HOP-18): > 100 µM (inactive)
- GI50 (XF498): > 100 µM (inactive)
- GI50 (M19-MEL): > 100 µM (inactive)
- GI50 (KM-20L2): > 10 µM (inactive)
- GI50 (DMS-273): > 100 µM (inactive)
- GI50 (SNB-78): > 100 µM (inactive)

Compound: CCN(CC)c1ccc(/C=C/C2=NN(c3cccc(S(=O)(=O)O)c3)C3(C2)SCC(=O)N3c2nc3ccccc3s2)cc1 (stereo unspecified)
- GI50 (T47D): 17.6 µM (inactive)

Compound: COc1ccc2c(c1)c1c3c(ccc4ncn2c43)N(CCN(C)C)CCN=1
- GI50 (T47D): 1.52 µM (inactive)

Compound: COC1OC2COC1(OCc1ccccc1)C1OC(C)(C)OC21 (stereo unspecified)
- GI50 (T47D): > 100 µM (inactive)

Compound: CCOC(=O)c1cc(C2CCN(c3ccccc3)C2=O)c(C(=O)/C=C(/C)O)[nH]1 (stereo unspecified)
- GI50 (T47D): 36.6 µM (inactive)

Compound: CCc1nc(N)nc(N)c1-c1ccc(NC)c([N+](=O)[O-])c1
- GI50 (T47D): 21.4 µM (inactive)

Compound: O=C(NC(=O)c1cn(CCN2CCN(C(=O)NCCCCCCNC(=O)N3CCN(CCn4cc(C(=O)NC(=O)OCc5ccccc5)c(=O)[nH]c4=O)CC3)CC2)c(=O)[nH]c1=O)OCc1ccccc1
- GI50 (HOP-18): > 100 µM (inactive)
- GI50 (M19-MEL): > 100 µM (inactive)
- GI50 (KM-20L2): > 100 µM (inactive)
- GI50 (RXF 631): > 100 µM (inactive)
- GI50 (DMS-273): > 100 µM (inactive)
- GI50 (DMS-114): > 100 µM (inactive)
- GI50 (SNB-78): > 100 µM (inactive)

Compound: CCOP(=O)(OCC)OC1c2[nH]cc(C(=O)OCc3ccccc3)c2-c2cc(C(=O)OC)[nH]c2C1OC (stereo unspecified)
- GI50 (T47D): 7.91 µM (inactive)

Compound: O=C(O)CSSCC(=O)O
- GI50 (T47D): > 100 µM (inactive)

Compound: COC(=O)C(=O)C(C(=O)C(N)=O)c1nc2ccc(C(=O)c3ccccc3)cc2nc1O (stereo unspecified)
- GI50 (T47D): 70.5 µM (inactive)

Compound: Clc1ccc(-c2cn3c(nc4ccccc43)c(/C=C/c3ccco3)n2)cc1
- GI50 (T47D): 22.9 µM (inactive)

Compound: CCCCCCCCCCCCCOCCOCCOCCCCC(O)CCCCCCCCCC1=C[C@H](C)OC1=O (stereo partly specified)
- GI50 (T47D): 16.3 µM (inactive)

Compound: CCN(CC)CCCNc1nc2ccccc2[n+]([O-])n1
- GI50 (T47D): > 100 µM (inactive)

Compound: Cc1ncc([N+](=O)[O-])n1CCNCCCCn1ccnc1[N+](=O)[O-]
- GI50 (T47D): > 100 µM (inactive)

Compound: CNC(=O)NCCN1CC2CCC(CC2)C1
- GI50 (T47D): > 10 µM (inactive)

Compound: CN1CCC(CN2c3ccccc3Sc3ccccc32)C1 (stereo unspecified) [METHDILAZINE HYDROCHLORIDE]
- GI50 (T47D): 15.8 µM (inactive)

Compound: CC1=C(c2ccccc2)CON(c2ccccc2)C1
- GI50 (XF498): 40.6 µM (inactive)
- GI50 (M19-MEL): 38.7 µM (inactive)
- GI50 (KM-20L2): 31.4 µM (inactive)
- GI50 (RXF 631): 24.8 µM (inactive)
- GI50 (DMS-114): 31 µM (inactive)
- GI50 (SNB-78): 39.9 µM (inactive)

Compound: O=C(O)CCCNS(=O)(=O)c1ccccc1
- GI50 (HOP-18): > 100 µM (inactive)
- GI50 (XF498): 69.3 µM (inactive)
- GI50 (M19-MEL): > 100 µM (inactive)
- GI50 (KM-20L2): > 100 µM (inactive)
- GI50 (DMS-273): > 100 µM (inactive)

Compound: O=C1C=C(c2ccccc2)O/C1=C\C(=O)c1ccc(Cl)cc1
- GI50 (T47D): 23.3 µM (inactive)

Compound: O=C(O)c1nn(-c2ccc(Cl)cc2)c2c1C(=O)c1ccccc1C2=O
- GI50 (T47D): > 100 µM (inactive)

Compound: C[n+]1ccc2/c(=C\C#N)c3ccccc3n21
- GI50 (T47D): 5.65 µM (inactive)

Compound: COc1ccc2c3c([nH]c2c1[N+](=O)[O-])C(C)N(Cc1ccc([N+](=O)[O-])cc1)CC3 (stereo unspecified)
- GI50 (KM-20L2): 10.8 µM (inactive)
- GI50 (DMS-273): 6.24 µM (inactive)
- GI50 (SNB-78): 26.2 µM (inactive)

Compound: CC(=O)OC1COC(Nc2ccc(C(C)=O)cc2)C(OC(C)=O)C1OC(C)=O (stereo unspecified)
- GI50 (HOP-18): > 100 µM (inactive)
- GI50 (M19-MEL): > 100 µM (inactive)
- GI50 (KM-20L2): > 100 µM (inactive)
- GI50 (RXF 631): > 100 µM (inactive)
- GI50 (DMS-273): > 100 µM (inactive)
- GI50 (DMS-114): > 100 µM (inactive)
- GI50 (SNB-78): > 100 µM (inactive)

Compound: COC1CC2C3/C(=N/Nc4ccc([N+](=O)[O-])cc4[N+](=O)[O-])CCC2(C)C3C1 (stereo unspecified)
- GI50 (HOP-18): > 10 µM (inactive)
- GI50 (XF498): > 100 µM (inactive)
- GI50 (M19-MEL): > 10 µM (inactive)
- GI50 (KM-20L2): > 10 µM (inactive)
- GI50 (DMS-273): > 10 µM (inactive)
- GI50 (DMS-114): > 100 µM (inactive)

Compound: NCCCNC(=O)c1csc(NC(=O)c2csc(NC(=O)CCCN)n2)n1
- GI50 (HOP-18): > 100 µM (inactive)
- GI50 (M19-MEL): > 100 µM (inactive)
- GI50 (KM-20L2): > 100 µM (inactive)
- GI50 (RXF 631): > 100 µM (inactive)
- GI50 (DMS-273): > 100 µM (inactive)
- GI50 (DMS-114): > 100 µM (inactive)
- GI50 (SNB-78): > 100 µM (inactive)

Compound: CC(Oc1ccccc1Cl)C(=O)NN1C(=O)CC(=O)NC1=S (stereo unspecified)
- GI50 (T47D): 36.6 µM (inactive)

Compound: COc1cc(OC)c(-n2[nH]c(=O)n(C)c2=O)c(OC)c1
- GI50 (T47D): > 100 µM (inactive)

Compound: CCOC(=O)C(CCN1CCC2(CC1)C(=O)N(C)CN2c1ccccc1)C(=O)OCC
- GI50 (T47D): > 100 µM (inactive)

Compound: COc1ccc(/C=N/NC(=O)C2=C(N)N(c3ccccc3)C(=C(C#N)C#N)S2)cc1
- GI50 (HOP-18): > 100 µM (inactive)
- GI50 (M19-MEL): > 100 µM (inactive)

Compound: CC(O)CC(=O)CO[C@H]1[C@H](O)[C@@H](O)[C@@H](O)[C@@H]2NC(=O)c3c(cc4c(c3O)OCO4)[C@H]21 (stereo partly specified)
- GI50 (T47D): 0.0222 µM (active)

Compound: CN1N=C2c3ccccc3CC[C@H]2C1c1cccc(O)c1 (stereo partly specified)
- GI50 (XF498): > 100 µM (inactive)
- GI50 (M19-MEL): > 100 µM (inactive)
- GI50 (KM-20L2): > 100 µM (inactive)
- GI50 (DMS-273): > 100 µM (inactive)
- GI50 (DMS-114): > 100 µM (inactive)

Compound: O=[N+]([O-])c1ccc(CSC2=C(c3ccc(Cl)cc3)S/C(=C3\SC(SCc4ccc([N+](=O)[O-])cc4)=C(c4ccc(Cl)cc4)S3)S2)cc1
- GI50 (T47D): > 100 µM (inactive)

Compound: CC(=O)Nc1ccc(C(=O)N2N=C(C)/C(=C/c3cccc([N+](=O)[O-])c3)C2=O)cc1
- GI50 (HOP-18): > 100 µM (inactive)
- GI50 (M19-MEL): > 100 µM (inactive)
- GI50 (DMS-273): > 100 µM (inactive)
- GI50 (DMS-114): > 100 µM (inactive)
- GI50 (SNB-78): > 100 µM (inactive)
